Earlier results in publication PMC12305721 (International Journal of Pharmaceutics: X, 2025).

Set-up: method as in Song et al., 2016
Conditions: reduced from −43.19 °C; ref Song et al., 2016

CCCCCCCCCCCCN1CCCCCC1=O [Azone]
Tg of PSAs after incorporation of Azone: −52.92 °C
